# Assay results as given in PMC5511029 (Journal of molecular biology, 2017).
# Target: E. coli cysteinyl-tRNA synthetase (EcCysRS) (Escherichia coli, UniProt P21888)
# Assay: aminoacylation of E. coli tRNA-Cys with […]-Cys by purified CysRS
# Format: biochemical
# E. coli cysteinyl-tRNA synthetase (EcCysRS), sequence (P21888 whole entry): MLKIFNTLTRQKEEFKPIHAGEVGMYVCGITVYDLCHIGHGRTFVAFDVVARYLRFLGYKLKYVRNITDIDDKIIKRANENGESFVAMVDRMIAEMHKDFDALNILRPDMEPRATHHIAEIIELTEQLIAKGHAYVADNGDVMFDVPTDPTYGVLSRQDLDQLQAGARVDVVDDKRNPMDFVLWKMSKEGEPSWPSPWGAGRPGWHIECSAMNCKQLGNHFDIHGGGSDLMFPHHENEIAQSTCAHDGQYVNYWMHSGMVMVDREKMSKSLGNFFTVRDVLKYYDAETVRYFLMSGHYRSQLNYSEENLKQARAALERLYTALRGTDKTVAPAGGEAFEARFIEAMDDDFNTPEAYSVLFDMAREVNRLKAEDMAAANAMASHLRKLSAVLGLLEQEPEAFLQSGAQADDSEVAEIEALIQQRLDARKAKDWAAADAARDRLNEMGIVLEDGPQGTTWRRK
compound,measurement,value
Nc1ncnc2c1ncn2[C@@H]1O[C@H](COS(=O)(=O)NC(=O)[C@@H](N)CS)[C@@H](O)[C@H]1O [Cys-AMS],IC50,< 600 nM
